# Experimental data: patent publication US20260345791A1, “EIF4A INHIBITORS AND USES THEREOF” (The Regents of the University of California, priority 2022, published 2026)
# Columns and labels:
# [1] = tested on: K562 CRISPRi or CRISPRa cells; IFITM1, IFITM2, IFITM3; assay: Viability of K562 CRISPRi/CRISPRa cells with modulated IFITM expression (chemical-genetic interaction, IC50 shift); assay type: cell-based; settings: for IFITM assistance versus linker length: linker series: BisRoc-1 (PEG11), BisRoc-2 (PEG4), BisRoc-3 (PEG2), rocaglamide (no linker), FIG. 2B
# Source text: FIGS. 1A-1E. Longer linker length correlates with greater IFITM assistance in a series of linked rocaglamide analogs. FIG. 1A: Crystal structure of rocaglamide bound to eIF4A1 and polypurine RNA showing adjacent symmetry mates (PDB, 5ZC9). The distance between RocA molecules bound to adjacent eIF4A1 proteins is approximately 14 Å and the solvent exposed amide on RocA offers a handle for chemical modification. FIG. 1B: Chemical structures of select eIF4A1 inhibitors. FIGS. 1C-1D: Viability of K562 CRISPRi (FIG. 1C) or CRISPRa (FIG. 1D) cells expressing sgRNAs treated with BisRoc-1 or rocaglamide. Data represent means of three biological replicates; error bars denote SD. FIG. 1E: Chemical structures of a BisRoc linker length series (see also FIG. 2B).
# FIGS. 2A-2C. IFITM proteins assist the cellular activity of diverse linked chemotypes. FIG. 2A: Heavy atom skeletons of compounds assessed for IFITM assistance (see also FIG. 3 for chemical structures). Compounds were categorized as non-linked chemotypes (compounds 3, 6, and 8; black), linked chemotypes with short linkers (compounds 10 and 13; light gray), or linked chemotypes with long linkers (compounds 15 and 17; medium gray). FIG. 2B: Chemical-genetic interaction map of inhibitors in FIG. 2A with IFITM1, IFTM2, and IFITM3. Potency, as measured by dose-response IC50 in a cell viability assay (see also FIG. 1D for example source data), was normalized to that of non-sgRNA-expressing K562 CRISPRi or CRISPRa cells. Physicochemical properties, including molecular weight (MW) and number of rotatable bonds, with their respective traditional thresholds for drug-likeness are indicated (right). Data represent means of three biological replicates. FIG. 2C: Map of chemical space populated by 301 kinase inhibitors in clinical development (black), 2258 PROTACs reported in the literature (light gray), and 2 linked chemotypes described herein (medium gray). Boundaries represent traditional guidelines for drug-likeness.
# Given the ubiquitous presence of IFITM proteins in cells, we hypothesized that the cellular uptake of other linked inhibitors in the literature could also be assisted by IFITM proteins. While not generally as large as the linked chemotypes described above, PROTACs are likewise composed of two chemical entities covalently attached by a flexible tether (15). […] Thus, we included several PROTACs and their non-linked parent inhibitors in an expanded survey of chemical-genetic interactions with IFITM proteins (FIG. 2A, FIGS. 3A-3B, and FIG. 4). We treated our K562 CRISPRi and CRISPRa cells with these inhibitors and evaluated differences in potency resulting from IFITM protein expression modulation, as measured by half-maximal inhibitory concentration (IC50) shift in a cell viability assay. […] The inverse finding, resistance to linked chemotypes, resulted from gene knockdown (FIG. 2B). Included among these compounds were a systematic linker series of BisRoc-1 analogs (FIG. 1E). […] The same trend was corroborated by the diverse ensemble of all molecules tested (FIG. 2B): the magnitudes of chemical-genetic interactions correlated with inhibitor size (molecular weight) and flexibility (number of rotatable bonds). […] Despite their cellular activities, the physicochemical properties of these linked chemotypes largely violate Lipinski's (1) and Veber's (2) classic guidelines (FIG. 2B and FIG. 4), raising the need for a revised drug design framework that considers IFITM-assisted uptake and other cellular import processes. […]
# [2] = tested on: interferon-induced transmembrane (IFITM) proteins; assay: Genome-scale chemical-genetic identification of uptake pathway; assay type: cell-based; settings: genome-scale chemical-genetic approaches
# Source text: We devised additional linked inhibitors targeting EIF4A1 (BisRoc-1, molecular weight: 1466 g/mol) whose uptake we predicted would be assisted by IFITM proteins. This uptake pathway should provide a general mechanism by which large, flexibly linked chimeric molecules can gain assisted access to the cytosol, including compounds with mechanisms of action not easily accessible to traditional drug-like molecules.
# [3] = in vivo; cited from earlier work
# [4] = tested on: MTOR; settings: cited from earlier work
# [5] = tested on: KBM7 cells; IFITM2; settings: IFITM2 knockout, not validated; cited from earlier work
compound,measurement,setting,value
COc1ccc([C@@]23Oc4cc(OC)cc(OC)c4[C@]2(O)[C@H](O)[C@H](C(=O)NCCOCCOCCOCCOCCOCCOCCOCCOCCOCCOCCOCCNC(=O)[C@H]2[C@@H](O)[C@@]4(O)c5c(OC)cc(OC)cc5O[C@@]4(c4ccc(OC)cc4)[C@@H]2c2ccccc2)[C@H]3c2ccccc2)cc1 [BisRoc-1],overall modulation in the cellular activity accounted for by IFITM proteins,"[1]; K562 CRISPRi/a cells, FIG. 1C-1D",6.2 fold
same,IFITM assistance versus linker length,[1],longer linker lengths correlated with greater IFITM assistance
CO[C@H]1C[C@@H]2CC[C@@H](C)[C@@](O)(O2)C(=O)C(=O)N2CCCC[C@H]2C(=O)O[C@H]([C@H](C)C[C@@H]2CC[C@@H](OCCOCc3cn(CCOCCOCCOCCOCCOCCOCCOCCOCCC(=O)NCCCCn4nc(-c5ccc6oc(N)nc6c5)c5c(N)ncnc54)nn3)[C@H](OC)C2)CC(=O)[C@H](C)/C=C(\C)[C@@H](O)[C@@H](OC)C(=O)[C@H](C)C[C@H](C)C=CC=CC=C1C [RapaLink-1],modulation of cell permeability by IFITM pathway,[2],modulates the cell permeability
same,blood-brain barrier penetration,[3],penetrates the blood-brain barrier
same,activity in vivo,[4],highly active in vivo
COc1ccc([C@@]23Oc4cc(OC)cc(OC)c4[C@]2(O)[C@H](O)[C@H](C(=O)N(C)C)[C@H]3c2ccccc2)cc1 [rocaglamide],IFITM assistance versus linker length,[1],longer linker lengths correlated with greater IFITM assistance
Cc1sc2c(c1C)C(c1ccc(Cl)cc1)=N[C@@H](CC(=O)NCCCCCCCCNC(=O)COc1cccc3c1C(=O)N(C1CCC(=O)NC1=O)C3=O)c1nnc(C)n1-2 (stereo partly drawn) [dBET6],IFITM2 chemical-genetic interaction,[5],statistically significant resistance chemical-genetic interaction
COc1ccc([C@@]23Oc4cc(OC)cc(OC)c4[C@]2(O)[C@H](O)[C@H](C(=O)NCCOCCOCCOCCOCCNC(=O)[C@H]2[C@@H](O)[C@@]4(O)c5c(OC)cc(OC)cc5O[C@@]4(c4ccc(OC)cc4)[C@@H]2c2ccccc2)[C@H]3c2ccccc2)cc1 [BisRoc-2],IFITM assistance versus linker length,[1],longer linker lengths correlated with greater IFITM assistance
COc1ccc([C@@]23Oc4cc(OC)cc(OC)c4[C@]2(O)[C@H](O)[C@H](C(=O)NCCOCCOCCNC(=O)[C@H]2[C@@H](O)[C@@]4(O)c5c(OC)cc(OC)cc5O[C@@]4(c4ccc(OC)cc4)[C@@H]2c2ccccc2)[C@H]3c2ccccc2)cc1 [BisRoc-3],IFITM assistance versus linker length,[1],longer linker lengths correlated with greater IFITM assistance
